Data from patent US6720322B2, “Butyne diol derivatives” (Actelion Pharamceuticals Ltd., priority 1999, dated 2004).

Legend:
[1] = molecular target: T1, human recombinant ETA receptors (Homo sapiens, UniProt P25101); assay: Inhibition of [125I]ET-1 binding to membranes of CHO cells expressing human recombinant ETA receptors; note: 2.5% DMSO
T1 construct: expressed in transfected cells; host or cells: CHO cells (microsomal membranes)
T1 sequence (P25101 21-427): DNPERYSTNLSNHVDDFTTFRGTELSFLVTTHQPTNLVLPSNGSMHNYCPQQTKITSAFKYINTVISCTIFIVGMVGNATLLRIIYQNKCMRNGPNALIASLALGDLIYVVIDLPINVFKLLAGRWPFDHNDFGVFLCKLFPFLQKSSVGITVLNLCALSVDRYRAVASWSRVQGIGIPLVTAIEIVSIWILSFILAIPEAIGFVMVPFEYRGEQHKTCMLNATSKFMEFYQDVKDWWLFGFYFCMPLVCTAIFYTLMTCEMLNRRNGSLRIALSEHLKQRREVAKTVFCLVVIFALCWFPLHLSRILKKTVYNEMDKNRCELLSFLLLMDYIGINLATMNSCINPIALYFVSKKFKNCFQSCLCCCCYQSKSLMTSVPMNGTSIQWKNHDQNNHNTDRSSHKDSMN
Protocol: (§1) 1) Inhibition of Endothelin Binding to Membranes from CHO Cells Carrying Human ET Receptors:
(§2) For competition binding studies, membranes of CHO cells expressing human recombinant ETA or ETB receptors were used.
(§3) The assay was performed in 200 uL 50 mM Tris/HCl buffer, pH 7.4, including 25 mM MnCl2, 1 mM EDTA and 0.5% (w/v) BSA in polypropylene microtiter plates. […] After two h, the membranes were filtered on filterplates containing GF/C filters (Unifilterplates from Canberra Packard S.A. Zürich, Switzerland). To each well, 50 uL of scintillation cocktail was added (MicroScint 20, Canberra Packard S.A. Zürich, Switzerland) and the filter plates counted in a microplate counter (TopCount, Canberra Packard S.A. Zürich, Switzerland).
(§4) All the test compounds were dissolved, diluted and added in DMSO.

[2] = molecular target: T2, human recombinant ETB receptors (Homo sapiens, UniProt P24530); assay: Inhibition of [125I]ET-1 binding to membranes of CHO cells expressing human recombinant ETB receptors; note: 2.5% DMSO
T2 construct: expressed in transfected cells; host or cells: CHO cells (microsomal membranes)
T2 sequence (P24530 27-442): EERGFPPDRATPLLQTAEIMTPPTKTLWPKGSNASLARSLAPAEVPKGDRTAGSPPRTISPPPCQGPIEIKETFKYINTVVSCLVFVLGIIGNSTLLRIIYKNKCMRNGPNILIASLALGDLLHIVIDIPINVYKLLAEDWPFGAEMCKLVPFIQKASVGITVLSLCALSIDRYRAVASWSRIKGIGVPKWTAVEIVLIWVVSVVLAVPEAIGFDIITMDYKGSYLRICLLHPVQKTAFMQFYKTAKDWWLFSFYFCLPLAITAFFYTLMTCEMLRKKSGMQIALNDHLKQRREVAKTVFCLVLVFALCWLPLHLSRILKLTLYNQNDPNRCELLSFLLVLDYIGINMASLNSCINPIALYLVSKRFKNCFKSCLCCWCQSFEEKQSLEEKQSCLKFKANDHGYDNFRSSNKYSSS
Protocol: as §1, §2, §3, §4

[3] = molecular target: T3, rat aortic rings (ETA receptors) (Rattus norvegicus, UniProt P26684); assay: Inhibition of endothelin-1-induced contraction of isolated rat aortic rings
T3 sequence (P26684 21-426): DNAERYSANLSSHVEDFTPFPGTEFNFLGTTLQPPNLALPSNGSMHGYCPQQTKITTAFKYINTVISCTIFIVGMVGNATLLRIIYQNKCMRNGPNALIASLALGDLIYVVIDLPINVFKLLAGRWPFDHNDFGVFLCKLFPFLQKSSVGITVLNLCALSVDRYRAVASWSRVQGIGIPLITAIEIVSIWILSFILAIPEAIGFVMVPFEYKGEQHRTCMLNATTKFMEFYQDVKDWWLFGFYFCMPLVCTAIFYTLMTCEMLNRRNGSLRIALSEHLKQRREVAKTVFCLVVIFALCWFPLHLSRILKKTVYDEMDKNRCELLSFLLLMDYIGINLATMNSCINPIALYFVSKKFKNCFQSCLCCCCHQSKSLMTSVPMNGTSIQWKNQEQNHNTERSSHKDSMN

[4] = molecular target: T4, rat tracheal rings (ETB receptors) (Rattus norvegicus, UniProt P21451); assay: Inhibition of sarafotoxin S6c-induced contraction of isolated rat tracheal rings; type: cell-based; conditions: contraction induced by sarafotoxin S6c, 10 min incubation with the test compound; read-out: pA2 trachea (converted)
T4 construct: The thoracic aorta or trachea were excised, dissected and cut in 3-5 mm rings; from tissue; host or cells: tracheal rings of adult Wistar rats, epithelium removed
T4 sequence (P21451 27-442): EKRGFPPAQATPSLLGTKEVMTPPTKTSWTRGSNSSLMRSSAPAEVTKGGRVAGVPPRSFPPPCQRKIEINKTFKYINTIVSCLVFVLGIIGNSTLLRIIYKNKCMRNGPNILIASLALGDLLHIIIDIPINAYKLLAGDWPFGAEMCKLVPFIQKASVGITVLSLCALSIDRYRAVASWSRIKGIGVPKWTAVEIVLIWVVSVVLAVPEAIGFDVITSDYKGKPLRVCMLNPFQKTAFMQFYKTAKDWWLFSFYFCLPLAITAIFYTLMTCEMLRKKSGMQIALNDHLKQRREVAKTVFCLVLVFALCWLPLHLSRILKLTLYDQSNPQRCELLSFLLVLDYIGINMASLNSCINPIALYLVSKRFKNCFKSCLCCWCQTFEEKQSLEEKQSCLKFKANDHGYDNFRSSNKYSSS

| Compound | IC50 [1] [nM] | IC50 [2] [nM] | melting point [°C] | Kb [3] [nM] | Kb [4] [nM] |
| --- | --- | --- | --- | --- | --- |
| COc1ccccc1Oc1c(NS(=O)(=O)c2ccc(C(C)(C)C)cc2)nc(-c2ccncc2)nc1OCC#CCOc1ncccn1 [Example 19, 4-tert.-butyl-N-[6-(4-(2-pyrimidinyloxy)-2-butynyloxy)-5-(o-methoxyphenoxy)-2-(4-pyridyl)-4-pyrimidinyl]-benzene sulfonamide] | 112 | 45 | – | > 10000 | 24 |
| Cc1ccc(-c2c(NS(=O)(=O)c3ccc(C(C)C)cn3)nc(-c3ccncc3)nc2OCC#CCO)cc1 [Example 11d, 5-isopropyl-N-[6-(4-hydroxy-2-butynyloxy)-5-(p-tolyl)-2-(4-pyridyl)-4-pyrimidinyl]-2-pyridine sulfonamide] | 49 | 97 | – | 89.1 | 93.3 |
| COc1cc(OC)nc(OCC#CCOc2nc(-c3ccncc3)nc(NS(=O)(=O)c3ccc(C(C)C)cn3)c2Oc2ccccc2OC)n1 [Example 18, 5-isopropyl-N-[6-(4-(4,6-dimethoxy-2-pyrimidinyloxy)-2-butynyloxy)-5-(o-methoxyphenoxy)-2-(4-pyridyl)-4-pyrimidinyl]-2-pyridine sulfonamide] | 79 | 36 | – | – | – |
| COc1ccccc1Oc1c(NS(=O)(=O)c2ccc(C(C)C)cn2)nc(-c2ccncc2)nc1OCC#CCOC(=O)Nc1cccc(C)c1 [Example 54, m-tolyl-carbamic acid 4-[6-(5-isopropyl-pyridine-2-sulfonylamino)-5-(2-methoxy-phenoxy)-2-pyridin-4-yl-pyrimidin-4-yloxy]-but-2-ynyl ester] | – | – | 163 to 165 | – | – |

The next lines start with results.

| IC50 [1] [nM] | IC50 [2] [nM] | melting point [°C] | Compound | Kb [3] [nM] | Kb [4] [nM] |
| --- | --- | --- | --- | --- | --- |
| 94 | 375 | – | COc1ccccc1Oc1c(NS(=O)(=O)c2ccc(C(C)C)cn2)nc(C)nc1OCC#CCOC(=O)Nc1ccccc1 [Example 70] | – | – |
| 230 | 44 | – | COc1cc(OC)nc(OCC#CCOc2nc(-c3ccncc3)nc(NS(=O)(=O)c3ccc(C(C)(C)C)cc3)c2Oc2ccccc2OC)n1 [Example 21, 4-tert.-butyl-N-[6-(4-(4,6-dimethoxy-2-pyrimidinyloxy)-2-butynyloxy)-5-(o-methoxyphenoxy)-2-(4-pyridyl)-4-pyrimidinyl]-benzene sulfonamide] | – | – |
| 13 | 107 | – | COCC#CCOc1nc(N2CCOCC2)nc(NS(=O)(=O)c2ccc(C(C)C)cn2)c1Oc1ccccc1OC [Example 94, 5-isopropyl-N-[6-(4-methoxy-2-butynyloxy)-5-(o-methoxyphenoxy)-2-(N-morpholino)-4-pyrimidinyl]-2-pyridine sulfonamide] | – | – |
